According to patent publication US20160331798A1, “NATURAL PRODUCT INHIBITORS OF 3DG” (Dynamis Pharmaceuticals, Inc., priority 2008, published 2016):
Where a name gives a salt, the structure may show the parent alone. Each block holds one compound with its values, some of them ahead of it.

Tests used:
[1] = 3DG inactivation assay (3DG binding assay); details: for 3DG inactivating activity: summary of Table 3
Method: The following assay was used to determine inactivation of 3DG by various natural products and chemicals.
• 1. Dilute the samples with Reagent 1 to a volume of 1.9 ml and add 100 uL Reagent 6 to a total of 2 mL. • 2. Take 600 μL from each solution before incubation (as 0 day sample) • 3. Let sit for 24 hours and 72 hours at 37° and remove 600 μL for samples on day 1 and day 3) • 4.

[2] = animal models; cited from earlier work
[3] = in vivo; cited from earlier work

Compound: O=C1O[C@H]([C@@H](O)CO)C(O)=C1O [Ascorbic Acid]
3DG Conc ([1]; 5 mM, 1 day, 37°): 13.75 µM | 3DG Conc ([1]; 5 mM, 3 days, 37°): 11.86 µM | 3DG Conc ([1]; 15 mM, 1 day, 37°): 13.99 µM | 3DG Conc ([1]; 15 mM, 3 days, 37°): 10.18 µM | 3DG Conc ([1]; 30 mM, 1 day, 37°): 17.26 µM | 3DG Conc ([1]; 30 mM, 3 days, 37°): 12.64 µM

Compound: N=C(N)NN [Aminoguanidine]
AGEs-associated retinal, neural, arterial, and renal pathologies [2]: reduces

Compound: NCCC(=O)N[C@@H](Cc1cnc[nH]1)C(=O)O [Carnosine]
3DG Conc ([1]; 2 mM, 1 day, 37°): 16.85 µM | 3DG Conc ([1]; 2 mM, 3 days, 37°): 15.58 µM | 3DG Conc ([1]; 5 mM, 1 day, 37°): 16.18 µM | 3DG Conc ([1]; 5 mM, 3 days, 37°): 14.58 µM | 3DG Conc ([1]; 6 mM, 1 day, 37°): 15.96 µM | 3DG Conc ([1]; 6 mM, 3 days, 37°): 16.93 µM | 3DG Conc ([1]; 12 mM, 1 day, 37°): 15.05 µM | 3DG Conc ([1]; 12 mM, 3 days, 37°): 12.37 µM | 3DG Conc ([1]; 15 mM, 1 day, 37°): 16.90 µM | 3DG Conc ([1]; 15 mM, 3 days, 37°): 15.39 µM | 3DG Conc ([1]; 30 mM, 1 day, 37°): 18.45 µM | 3DG Conc ([1]; 30 mM, 3 days, 37°): 13.97 µM

Compound: N[C@@H](CCCCNC[C@@H](O)[C@@H](O)[C@H](O)[C@H](O)CO)C(=O)O [mannitollysine]
urinary or plasma 3DG [3]: reduced

Compound: N=C(N)NCCC[C@H](N)C(=O)O [Arginine]
3DG Conc ([1]; 2 mM, 1 day, 37°): 15.71 µM | 3DG Conc ([1]; 2 mM, 3 days, 37°): 13.14 µM | 3DG Conc ([1]; 6 mM, 1 day, 37°): 13.66 µM | 3DG Conc ([1]; 6 mM, 3 days, 37°): 8.50 µM | 3DG Conc ([1]; 12 mM, 1 day, 37°): 12.24 µM | 3DG Conc ([1]; 12 mM, 3 days, 37°): 4.98 µM | 3DG inactivating activity [1]: most amount of 3DG inactivating activity

Compound: Cc1ncc(C[n+]2csc(CCO)c2C)c(N)n1 [Thiamine-HCl]
3DG Conc ([1]; 5 mM, 1 day, 37°): 16.27 µM | 3DG Conc ([1]; 5 mM, 3 days, 37°): 14.49 µM | 3DG Conc ([1]; 15 mM, 1 day, 37°): 14.83 µM | 3DG Conc ([1]; 15 mM, 3 days, 37°): 14.81 µM | 3DG Conc ([1]; 30 mM, 1 day, 37°): 17.76 µM | 3DG Conc ([1]; 30 mM, 3 days, 37°): 14.89 µM

Compound: N[C@@H](CCCCNC[C@H](O)[C@@H](O)[C@@H](O)[C@H](O)CO)C(=O)O [galactitollysine]
urinary or plasma 3DG [3]: reduced

Compound: N[C@@H](CCCCNC[C@H](O)[C@@H](O)[C@H](O)[C@H](O)CO)C(=O)O [sorbitollysine]
urinary or plasma 3DG [3]: reduced

Compound: CC(C)(CO)[C@@H](O)C(=O)NCCC(=O)[O-].CC(C)(CO)[C@@H](O)C(=O)NCCC(=O)[O-].[Ca+2] [Calcium Panthenate]
3DG Conc ([1]; 2.5 mM, 1 day, 37°): 17.27 µM | 3DG Conc ([1]; 2.5 mM, 3 days, 37°): 16.18 µM | 3DG Conc ([1]; 5 mM, 0 day): 21.06 µM | 3DG Conc ([1]; 5 mM, 1 day, 37°): 18.13 µM | 3DG Conc ([1]; 5 mM, 3 days, 37°): 17.96 µM | 3DG Conc ([1]; 7.5 mM, 1 day, 37°): 16.92 µM | 3DG Conc ([1]; 7.5 mM, 3 days, 37°): 15.37 µM | 3DG Conc ([1]; 12.5 mM, 1 day, 37°): 18.58 µM | 3DG Conc ([1]; 12.5 mM, 3 days, 37°): 14.57 µM | 3DG Conc ([1]; 15 mM, 0 day): 22.86 µM | 3DG Conc ([1]; 15 mM, 1 day, 37°): 18.84 µM | 3DG Conc ([1]; 15 mM, 3 days, 37°): 16.95 µM | 3DG Conc ([1]; 30 mM, 0 day): 22.09 µM | 3DG Conc ([1]; 30 mM, 1 day, 37°): 19.56 µM | 3DG Conc ([1]; 30 mM, 3 days, 37°): 19.17 µM

Compound: Cc1ncc(COP(=O)(O)O)c(C=O)c1O [Pyridoxal-5′-Phosphate]
3DG Conc ([1]; 2 mM, 1 day, 37°): 13.71 µM | 3DG Conc ([1]; 2 mM, 3 days, 37°): 12.29 µM | 3DG Conc ([1]; 6 mM, 1 day, 37°): 13.00 µM | 3DG Conc ([1]; 6 mM, 3 days, 37°): 8.12 µM | 3DG Conc ([1]; 12 mM, 1 day, 37°): 12.20 µM | 3DG Conc ([1]; 12 mM, 3 days, 37°): 7.14 µM | 3DG inactivating activity [1]: most amount of 3DG inactivating activity

Compound: Thiamine nitrate
3DG Conc ([1]; 5 mM, 1 day, 37°): 15.87 µM | 3DG Conc ([1]; 5 mM, 3 days, 37°): 16.45 µM | 3DG Conc ([1]; 15 mM, 1 day, 37°): 18.90 µM | 3DG Conc ([1]; 15 mM, 3 days, 37°): 14.19 µM | 3DG Conc ([1]; 30 mM, 1 day, 37°): 17.20 µM | 3DG Conc ([1]; 30 mM, 3 days, 37°): 14.85 µM

Next, values leading:

3DG Conc ([1]; 2 mM, 0 day): 16.46 µM | 3DG Conc ([1]; 2 mM, 1 day, 37°): 12.16 µM | 3DG Conc ([1]; 2 mM, 3 days, 37°): 16.19 µM | 3DG Conc ([1]; 6 mM, 0 day): 16.02 µM | 3DG Conc ([1]; 6 mM, 1 day, 37°): 14.57 µM | 3DG Conc ([1]; 6 mM, 3 days, 37°): 15.72 µM | 3DG Conc ([1]; 12 mM, 0 day): 14.80 µM | 3DG Conc ([1]; 12 mM, 1 day, 37°): 14.79 µM | 3DG Conc ([1]; 12 mM, 3 days, 37°): 14.99 µM
Compound: Cc1ncc(CO)c(C=O)c1O.Cl [Pyridoxal-HCl]

3DG Conc ([1]; 2 mM, 0 day): 16.32 µM | 3DG Conc ([1]; 2 mM, 1 day, 37°): 14.82 µM | 3DG Conc ([1]; 2 mM, 3 days, 37°): 16.35 µM | 3DG Conc ([1]; 6 mM, 0 day): 16.13 µM | 3DG Conc ([1]; 6 mM, 1 day, 37°): 16.67 µM | 3DG Conc ([1]; 6 mM, 3 days, 37°): 15.83 µM | 3DG Conc ([1]; 12 mM, 0 day): 15.90 µM | 3DG Conc ([1]; 12 mM, 1 day, 37°): 15.85 µM | 3DG Conc ([1]; 12 mM, 3 days, 37°): 15.44 µM
Compound: Cc1ncc(CO)c(CO)c1O [Pyridoxine]

3DG Conc ([1]; 5 mM, 0 day): 25.15 µM | 3DG Conc ([1]; 5 mM, 1 day, 37°): 43.42 µM | 3DG Conc ([1]; 5 mM, 3 days, 37°): 82.33 µM | 3DG Conc ([1]; 15 mM, 0 day): 36.00 µM | 3DG Conc ([1]; 15 mM, 1 day, 37°): 122.14 µM | 3DG Conc ([1]; 15 mM, 3 days, 37°): 181.09 µM | 3DG Conc ([1]; 30 mM, 0 day): 56.87 µM | 3DG Conc ([1]; 30 mM, 1 day, 37°): 183.92 µM | 3DG Conc ([1]; 30 mM, 3 days, 37°): 173.60 µM
Compound: Cl.N[C@H]1C(O)O[C@H](CO)[C@@H](O)[C@@H]1O (stereo partly drawn) [Glucosamine HCl, D-Glucosamine HCl]

3DG Conc ([1]; 5 mM, 1 day, 37°): 17.51 µM | 3DG Conc ([1]; 5 mM, 3 days, 37°): 16.27 µM | 3DG Conc ([1]; 15 mM, 1 day, 37°): 16.58 µM | 3DG Conc ([1]; 15 mM, 3 days, 37°): 17.52 µM | 3DG Conc ([1]; 30 mM, 1 day, 37°): 15.39 µM | 3DG Conc ([1]; 30 mM, 3 days, 37°): 15.87 µM
Compound: CNC[C@H](O)[C@@H](O)[C@H](O)[C@H](O)CO.Cl [Meglumine-HCl, reference compound]

3DG Conc ([1]; 5 mM, 0 day): 19.54 µM | 3DG Conc ([1]; 5 mM, 1 day, 37°): 18.10 µM | 3DG Conc ([1]; 5 mM, 3 days, 37°): 19.51 µM | 3DG Conc ([1]; 15 mM, 0 day): 18.08 µM | 3DG Conc ([1]; 15 mM, 1 day, 37°): 17.74 µM | 3DG Conc ([1]; 15 mM, 3 days, 37°): 16.84 µM | 3DG Conc ([1]; 30 mM, 0 day): 18.91 µM | 3DG Conc ([1]; 30 mM, 1 day, 37°): 17.67 µM | 3DG Conc ([1]; 30 mM, 3 days, 37°): 17.63 µM
Compound: CC(C)(CO)[C@@H](O)C(=O)NCCCO [Panthenol]

3DG Conc ([1]; 5 mM, 0 day): 20.96 µM | 3DG Conc ([1]; 5 mM, 1 day, 37°): 24.16 µM | 3DG Conc ([1]; 5 mM, 3 days, 37°): 22.02 µM | 3DG Conc ([1]; 15 mM, 0 day): 18.06 µM | 3DG Conc ([1]; 15 mM, 1 day, 37°): 18.98 µM | 3DG Conc ([1]; 15 mM, 3 days, 37°): 19.21 µM | 3DG Conc ([1]; 30 mM, 0 day): 19.25 µM | 3DG Conc ([1]; 30 mM, 1 day, 37°): 17.42 µM | 3DG Conc ([1]; 30 mM, 3 days, 37°): 16.87 µM
Compound: NC[C@H]1CC[C@H](C(=O)O)CC1 [Tranexamic Acid, reference compound]
